The source made the active and inactive calls. The rule behind the calls is not given here.

This note sets out measurements from ChEMBL document CHEMBL1151611, “Antimicrobial principles from in vitro tissue culture of Peganum harmala” (J Nat Prod, 1984).

Type in all cases: functional, organism-based
The subject of one experiment is Candida albicans. Kind of experiment: Antimicrobial activity against Candida albicans.
A further experiment relates to Escherichia coli. Kind of experiment: Antimicrobial activity against Escherichia coli.
The subject of another experiment is Staphylococcus aureus. Kind of experiment: Antimicrobial activity against Staphylococcus aureus.

As for `O=c1c(O)c(-c2ccc(O)cc2)oc2cc(O)cc(O)c12`, the outcome with Candida albicans, in the experiment on Escherichia coli and in the experiment on Staphylococcus aureus was Active.

`O=c1c(O)c(-c2ccc(O)c(O)c2)oc2cc(O)cc(O)c12`: in the experiment with Candida albicans, the outcome was inactive. For the same molecule, the result in the experiment on Escherichia coli and with Staphylococcus aureus was Active.
